From PubChem BioAssay AID179 (DTP/NCI, 2004)
Values joined by “and” are separate entries in the source; they are usually repeats but may differ in a detail not shown here. Identical values can stand only once. Active and inactive are the calls of the source.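 Rule for the calls: active = compounds giving half or more protection of infected cells from virus-caused growth loss, again on retest; inactive = the rest.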

Tested on: CEM cells HIV-1 protection, formazan growth assay
Assay: NCI AIDS Antiviral Assay
Details: for IC50: measured here: growth of uninfected CEM cells
In short: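 Human CEM cells, uninfected and HIV-1-infected, received five drug concentrations, and growth was read by soluble formazan assay. Compounds giving at least 50% protection were retested; reproducible 100% protection defined confirmed active.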

Row | Compound | EC50 | IC50 | outcome
1 | c1ccc2c(c1)ccn2CCc1c[nH]c2ccccc12 | > 200 µM | > 200 µM | –
2 | Cc1cc(C)nc(NS(=O)(=O)c2ccc(Nc3c4ccccc4nc4ccc(C(=O)Nc5ccc(S(N)(=O)=O)cc5)cc34)cc2)n1 | > 200 µM | 89.1 µM | –
3 | Clc1nn2nnnc2c2ccccc12 | > 66.1 µM | 1.23 µM | –
4 | CCOC(=N)CC(=O)Nc1ccccc1 | > 40.7 µM | > 40.7 µM | –
5 | CC(C)(C)NNC(=O)CCn1[nH]c(=O)c(Cl)c(Cl)c1=O | > 407 µM | > 407 µM | –
6 | Cc1cc(NS(=O)(=O)c2ccc(N=Nc3cc(S(=O)(=O)O)c4ccccc4c3O)cc2)ccc1N=Nc1ccc2cc(S(=O)(=O)O)cc(S(=O)(=O)O)c2c1 | – | – | active
7 | N#Cc1cc(C#N)c(N)nc1N | > 200 µM | > 200 µM | –
8 | O=c1ccn([C@@H]2C[C@H](CO)CS(=O)C2)c(=O)[nH]1 (some centres not stated) | > 977 µM | > 977 µM | –
9 | CC(O)C1(CNc2cc(Cl)nc(N)n2)CCC1 (configuration not stated) | > 200 µM | 182 µM | –
10 | CC(=O)Nc1sc([N+](=O)[O-])cc1S(=O)(=O)c1ccc(Cl)cc1 | > 200 µM | 1.48 µM | –
11 | NCCCCNCCCNC(=O)c1nc(-c2csc(CCN)n2)sc1Cl | > 200 µM | > 200 µM | –
12 | N#CC1(C#N)C2CCCCC23OC(=N)C1(C#N)C(c1ccco1)O3 (configuration not stated) | > 200 µM | 5.75 µM | –
13 | Cc1ccc2cc([N+](=O)[O-])c3ccc(C)nc3c2n1 | > 200 µM | 3.16 µM | –
14 | Cn1c2ccccc2n2c(=O)c(-c3ccc(Cl)cc3)nnc12 | > 200 µM | > 200 µM | –
15 | CN(C)c1ccc(N=O)c(O)c1 | > 200 µM | 8.71 µM | –
16 | Cc1cccc(N=NC2Sc3nc4ccccc4n3C2=O)c1 (configuration not stated) | > 200 µM | > 200 µM | –
17 | O=P(O)(O)CC1OC(CO)C(O)C1O (configuration not stated) | > 200 µM | > 200 µM | –
18 | Cc1cc(=N)cc(C)n1O | > 1820 µM | > 1820 µM | –
19 | O=C1NC(=S)N/C1=C\c1ccccc1 | > 200 µM | 178 µM | –
20 | CC1(O)CC2(O)C=CC3=C(C(=O)c4cccc(O)c4C3=O)C2(O)C(=O)C1O (configuration not stated) | > 676 µM | 0.339 µM | –
21 | CC(=O)Oc1c(C)cc2c(c1C)C(C)(C)CN2C(=O)C(C)(C)C | > 200 µM | 66.1 µM | –
22 | CCN(CCNc1ccc(C)c2sc3ccccc3c(=O)c12)CC(C)(C)O | > 200 µM | 7.94 µM | –
23 | COc1ccc(C2SC(C)C(=O)N2c2nc(-c3nc(-c4ccc(Cl)cc4)cs3)cs2)cc1 (configuration not stated) | > 200 µM | > 100 µM | –

Row | Compound | EC50 | IC50 | outcome
24 | COc1cc(C2=C(c3cc(OC)c4ccccc4c3OC)C(=O)c3ccccc3C2=O)c(OC)c2ccccc12 | > 100 µM | > 100 µM | –
25 | CCc1n[nH]c(=O)n1CCO | – | – | inactive
26 | CCOC(=O)C1=C(Nc2cccc(OC)c2)OCC1=O | > 200 µM | > 200 µM | –
27 | CCOC(=O)C(=O)Nc1c(CC)cccc1C(C)C | > 355 µM | > 355 µM | –
28 | CCOC(=O)Cc1nc2cc(F)c(F)cc2[nH]c1=O | > 200 µM | > 200 µM | –
29 | CN(CCC#N)c1ccc(/C=C2\SC(=S)NC2=O)cc1 | > 200 µM | 34.7 µM | –
30 | O=C(N=S(NC(=O)c1ccccc1)C(Cl)(Cl)Cl)c1ccccc1 (configuration not stated) | > 44.7 µM | 16.6 µM | –
31 | COc1cc(/C=C/C(=N\NC(=O)c2ccccc2)c2sc(Nc3ccc(Cl)c(Cl)c3)nc2C)ccc1O | > 46.8 µM | 38.9 µM | –
32 | Cn1c(=O)c2[nH]c(SSc3nc4c([nH]3)c(=O)n(C)c(=O)n4C)nc2n(C)c1=O | 35.5 µM | 162 µM | –
33 | O=S(OO)c1cc(Cl)c(O)c(Cl)c1 (configuration not stated) | > 1020 µM | > 1020 µM | –
34 | CC12CN3CC(C)(C1=O)C(=O)C(C)(C3)C2=O | > 117 µM | > 117 µM | –
35 | COC(=O)C(C(=O)C(=O)Nc1ccc(C)cc1C)c1nc2ccc([N+](=O)[O-])cc2[nH]c1=O (configuration not stated) | > 575 µM | 129 µM | –
36 | C#CCN(Cc1ccc2nc(-c3ccccc3)c(N)nc2c1)c1cc(OC)c(OC)c(OC)c1 | > 21.9 µM | > 21.9 µM | –
37 | CCOC(=O)c1cc2c(nc1N)-c1ncccc1CC2 | > 19.5 µM | 0.219 µM | –
38 | CCN=c1cc2oc3cc(NCC)c(C)cc3c(-c3ccccc3C(=O)OCC)c-2cc1C | > 200 µM | 0.0631 µM and 0.12 µM | –
39 | NC(N)=NS(=O)(=O)c1ccc(NNc2c3ccccc3nc3c(C(=O)Nc4ccc(S(N)(=O)=O)cc4)cccc23)cc1 | > 200 µM | 10.2 µM | –
40 | CCOC(=O)c1cc(-c2ccn(C(C)=O)c2)c(-c2cc(C)co2)[nH]1 | 18.2 µM | > 200 µM | –
41 | COc1ccc(C(=C(c2ccc(OC)cc2)c2ccc(OC)cc2)c2ccc(OC)cc2)cc1 | > 100 µM | 46.8 µM | –
42 | Cc1c(C2(c3cc(C(C)C)c(O)c(Br)c3C)OS(=O)(=O)c3ccccc32)cc(C(C)C)c(O)c1Br | > 288 µM | 97.7 µM | –
43 | COc1ccc(-c2c[se]c(=S)s2)cc1 | > 18.2 µM | > 18.2 µM | –
44 | COc1cc(CNc2nc3c(NC(C)=O)cc(C(F)(F)F)cc3nc2-c2ccccc2)cc(OC)c1OC | > 13.8 µM | 11.7 µM | –
45 | Cc1cn(C(Cc2ccccc2)OCC[Se]c2ccccc2)c(=O)[nH]c1=O (configuration not stated) | 100 µM | > 200 µM | –
46 | O=c1ccn([C@@H]2C[C@H](CO)[C@H](O)C2)c(=O)[nH]1 | > 1100 µM | > 1100 µM | –

Row | Compound | EC50 | IC50 | outcome
47 | O=c1[nH]c(-c2nc3ccccc3c(=O)[nH]2)nc2ccccc12 | > 32.4 µM | > 32.4 µM | –
48 | CC(C)CCC[C@@H](C)[C@H]1CC[C@H]2[C@@H]3CC[C@H]4C[C@@H](CCCC(c5ccc(O)c(C(=O)O)c5)c5ccc(O)c(C(=O)O)c5)CC[C@]4(C)[C@H]3CC[C@]12C | 64.6 µM | > 100 µM | –
49 | Nc1c(C(=O)N/N=C/c2ccccc2)sc(=S)n1-c1ccccc1 | > 4.07 µM | > 4.07 µM | –
50 | Cc1cc(C[C@H]2O[C@@H]3OC(C)(C)O[C@@H]3[C@H]3OC(C)(C)O[C@H]32)c2ccccc2n1 | > 200 µM | 64.6 µM | –
51 | Cc1ccc(-c2cc(-c3ccccc3)[s+]c3ccc(C)cc23)cc1 | > 200 µM | 6.03 µM | –
52 | C=CCN1C(=O)CS/C1=N\NC(=O)c1c(C)nc2sccn12 | > 741 µM | 240 µM | –
53 | Cc1cccc(C)c1NC(=O)C1=NC(=S)NC(c2ccccc2)C1c1nc2ccccc2s1 (configuration not stated) | – | – | inactive
54 | O=C(c1ccccc1Cl)c1c(O)c2ccccc2oc1=O | > 200 µM | > 200 µM | –
55 | CC(=O)NC(CCCCNC(=O)NCCCl)C(=O)NCc1ccccc1 (configuration not stated) | > 646 µM | > 646 µM | –
56 | c1ccc(-c2nnc3sc4ccccc4n23)cc1 | > 200 µM | > 200 µM | –
57 | CCCC1(CCC)c2cc(/C=N\O)ccc2-c2ccc(-c3ccc(C(C)(C)C)cc3)cc21 | > 200 µM | 37.2 µM | –
58 | O=C1OC(c2cccc3c(F)cccc23)c2ccccc21 (configuration not stated) | – | – | inactive
59 | CSC1=C(C#N)C(=O)N(c2ccc(C)cc2)C(=S)C1C#N (configuration not stated) | > 200 µM | 174 µM | –
60 | O=C1CSC(c2ccccc2O)N1c1ccc(-c2ccc(-n3c(-c4ccccc4)nc4ccccc4c3=O)cc2)cc1 (configuration not stated) | > 200 µM | 12 µM | –
61 | O=C(O)c1c(O)ccc(N=Nc2ccc(N=Nc3ccc4c(S(=O)(=O)O)cccc4c3O)c3ccccc23)c1O | > 100 µM | > 100 µM | –
62 | O=C(Nc1ccc(Cl)cc1)Nc1ccc(Cl)c(C(F)(F)F)c1 | > 200 µM | 2.69 µM | –
63 | COC(=O)c1ccc(OCCn2nnc(C(=O)NN)c2C(=O)NN)cc1 | > 100 µM | > 100 µM | –
64 | CN(C)C(=O)c1nnsc1NN=O | > 200 µM | > 200 µM | –
65 | C/C(=N/c1[nH]c(=O)cc2c1C(=O)CC2)N(C)C | > 200 µM | > 200 µM | –
66 | COc1ccc(NC(=O)CSc2nnc(Cc3ccccc3)o2)cc1 | > 100 µM | 23.4 µM | –
67 | CCN(c1ccc(Br)cc1)c1c(Br)c(=O)nc2ccccn12 | > 525 µM | 97.7 µM | –
68 | C/C(=N/NC(=S)Nc1ccccc1Cl)c1cccc(/C(C)=N\NC(=S)Nc2ccccc2Cl)n1 | > 200 µM | 87.1 µM | –
69 | CC1(Br)C(=O)NC(=O)N([C@H]2C[C@H](O)[C@@H](CO)O2)C1N=[N+]=[N-] (some centres not stated) | 145 µM | > 200 µM | –

Row | Compound | EC50 | IC50 | outcome
70 | Nc1ccccc1C(=O)CCc1ccccc1C(=O)O | – | – | inactive
71 | N/N=C(/Cc1ccccc1)NNO | > 525 µM | 174 µM | –
72 | C/C(CN1C(=O)c2ccccc2C1=O)=N\NS(=O)(=O)c1cccc([N+](=O)[O-])c1 | > 617 µM | > 617 µM | –
73 | N#CC1(C#N)NC(c2ccccc2)C(C#N)(C#N)NC1c1ccccc1 (configuration not stated) | > 200 µM | > 200 µM | –
74 | NC(=O)C1=NOC(C(N)=O)C1C1OC(CO)C(O)C1O (configuration not stated) | > 200 µM | > 200 µM | –
75 | Nc1c(Br)cc2c(c1Br)Cc1cc(Br)ccc1-2 | > 200 µM | > 200 µM | –
76 | CC1=C(C(=O)NNC(=O)C[N+](C)(C)C)CC(C(=O)NNC(=O)C[N+](C)(C)C)=C(C)N1 | > 200 µM | 95.5 µM | –
77 | O=C1CCCc2ccc3c(c21)CC1(Cc2ccccc2C1)C3 | > 200 µM | 25.1 µM | –
78 | Cc1cc2c(cc1C)NS(=O)(=O)N2 | > 447 µM | 9.77 µM | –
79 | NC1=NCC(CN2CCOCC2)O1 (configuration not stated) | > 200 µM | > 200 µM | –
80 | CC1=CCP(C(F)(F)F)P(C(F)(F)F)C1 (configuration not stated) | > 251 µM | > 251 µM | –
81 | O[C@@H]1[C@H]2CC(OCc3ccccc3)C[C@H]2C[C@@H]1O (some centres not stated) | > 1000 µM | > 1000 µM | –
82 | Nc1ccccc1S(=O)(=O)c1ccccc1 | – | – | active
83 | O=C(NCCCN1CCCCCC1)C(c1ccccc1)C1CCCCC1 (configuration not stated) | > 200 µM | 36.3 µM | –
84 | COc1cc(OC)c(SSCCCCS(=O)O)c(OC)c1 | – | – | inactive
85 | Cc1c(N=Nc2ccccc2)c(-c2ccccc2)n(C2OC(CO)C(O)C(O)C2O)c(=S)c1C#N (configuration not stated) | > 200 µM | 15.1 µM | –
86 | CCCCC[C@@H]1CCCC2C1CC[C@@H](CCCCCI)N2C(=O)OCC(Cl)(Cl)Cl (some centres not stated) | – | – | inactive
87 | COc1ccc(/C=N/NC(=S)Nc2ccccc2)cc1 | > 200 µM | > 200 µM | –
88 | Cc1ncc2c[n+]([O-])ccn12 | > 1660 µM | > 1660 µM | –
89 | COC(=O)C(N)C(C)c1c[nH]c2ccccc12 (configuration not stated) | > 200 µM | > 200 µM | –
90 | CCCCCCCC(=O)OCC(C[As](=O)(O)O)OC(=O)CCCCCCC (configuration not stated) | > 200 µM | 15.1 µM | –
